# Biological target: T1, human PAD4 (Homo sapiens, UniProt Q9UM07)
# T1 construct: human PAD4 (NM_012387), A2-P663, was PCR amplified; His-SUMO (N, cleaved yes); made in house; host or cells: E. coli BL21(DE3)
# Test: In vitro PAD4 BAEE biochemical assay
# Conditions: BAEE substrate 3 mM, 5 nM PAD4, 2 mM calcium chloride; geometric mean of multiple experiments
# Procedure, shortened: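 PAD4 5 nM, CaCl2 2 mM, BAEE 3 mM final; 50 mM MOPS pH 7.6, 50 mM NaCl, 0.05% Tween-20, 2 mM DTT. Cpd + enzyme 30 min 25 °C; substrate 2 h 25 °C; EDTA stop; OPA detection 1 h. IC50 4-parameter fit.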
# T1 sequence (Q9UM07 2-663): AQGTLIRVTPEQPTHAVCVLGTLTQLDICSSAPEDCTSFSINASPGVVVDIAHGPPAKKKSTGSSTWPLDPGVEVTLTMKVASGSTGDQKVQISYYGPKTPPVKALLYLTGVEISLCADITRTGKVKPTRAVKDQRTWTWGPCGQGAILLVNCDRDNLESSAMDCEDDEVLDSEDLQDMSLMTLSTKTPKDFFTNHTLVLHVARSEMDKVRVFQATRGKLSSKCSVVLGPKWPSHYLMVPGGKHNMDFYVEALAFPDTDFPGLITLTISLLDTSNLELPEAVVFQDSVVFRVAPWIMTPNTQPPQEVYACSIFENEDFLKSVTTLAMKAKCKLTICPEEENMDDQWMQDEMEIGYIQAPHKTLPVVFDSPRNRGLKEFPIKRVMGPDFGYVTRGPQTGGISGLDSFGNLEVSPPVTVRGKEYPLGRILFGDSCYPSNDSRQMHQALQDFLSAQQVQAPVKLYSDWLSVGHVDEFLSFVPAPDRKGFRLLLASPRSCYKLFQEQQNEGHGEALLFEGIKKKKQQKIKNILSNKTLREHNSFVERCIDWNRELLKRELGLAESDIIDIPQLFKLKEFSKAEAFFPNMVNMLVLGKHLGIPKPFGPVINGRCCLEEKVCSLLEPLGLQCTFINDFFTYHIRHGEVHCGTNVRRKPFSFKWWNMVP
row,Compound,IC50
1,"COc1cc(C(=O)N2CC[C@@H](OC)[C@@H](N)C2)cc2nc(-c3cc4ccc5nc4n3CCCCCc3cc(Cl)cnc3C(=O)N[C@@H]5C)n(C)c12 [Example 783, (2~{R})-17-[5-[(3~{S},4~{R})-3-amino-4-methoxy-piperidine-1-carbonyl]-7-methoxy-1-methyl-benzimidazol-2-yl]-8-chloro-2-methyl-3,6,16,22-tetrazatetracyclo[14.5.2.0^ {5,10}.0^{19,23}] tricosa-1(21),5(10),6,8,17,19, 22-heptaen-4-one]",109 nM
2,"COc1cc(C(=O)N2CC[C@@H](OC(F)F)[C@@H](N)C2)cc2nc(-c3cc4ccc5nc4n3CCCCCc3ccc(Cl)nc3C(=O)N[C@@H]5C)n(C)c12 [Example 784, (2~{R})-17-[5-[(3~{S},4~{R})-3-amino-4-(difluoromethoxy)piperidine-1-carbonyl]-7-methoxy-1-methyl-benzimidazol-2-yl]-7-chloro-2-methyl-3,6,16,22-tetrazatetracyclo[14.5.2.0^ {5,10}.0^{19,23}]tricosa-1(21),5(10),6,8,17,19,22-heptaen-4-one]",97 nM
3,"COc1cc(C(=O)N2CC[C@@H](OC)[C@@H](N)C2)cc2nc(-c3cc4ccc5nc4n3CCCCCCC(C)(C)C(=O)NC5C(F)(F)F)n(C)c12 (stereo partly shown) [Example 785, 17-[5-[(3~{S},4~{R})-3-amino-4-methoxy-piperidine-1-carbonyl]-7-methoxy-1-methyl-benzimidazol-2-yl]-8,8-dimethyl-11-(trifluoromethyl)-1,10,19-triazatricyclo [10.5.2.0^{15,18}]nonadeca-12,14,16,18-tetraen-9-one]",954 nM
4,"COc1cc(C(=O)N2C[C@H](N)C[C@H](O)[C@@H]2C)cc2nc(-c3cc4ccc5nc4n3CCCCCCC(C)(C)C(=O)N[C@@H]5C)n(C)c12 [Example 786, (11~{R})-17-[5-[(2~{S},3~ {S},5~{R})-5-amino-3-hydroxy-2-methyl-piperidine-1-carbonyl]-7-methoxy-1-methyl-benzimidazol-2-yl]-8,8,11-trimethyl-1,10,19-triazatricyclo[10.5.2.0^ {15,18}]nonadeca-12,14,16,18-tetraen-9-one]",237 nM
5,"COc1cc(C(=O)N2CC[C@@H](OC)[C@@H](N)C2)cc2nc(-c3cc4ccc5nc4n3CCCCC[C@@H]3C[C@H]3C(=O)NC53CC3)n(C)c12 [Example 787, (5~{R},7~{R})-14-[5-[(3~{S}, 4~{R})-3-amino-4-methoxy-piperidine-1-carbonyl]-7-methoxy-1-methyl-benzimidazol-2-yl]spiro[3,13,19-triazatetracyclo[11.5.2.0^ {5,7}.0^{16,20}]icosa-1(18),14,16,19-tetraene-2,1′-cyclopropane]-4-one]",94 nM
6,"COc1cc(C(=O)N2CC[C@@H](OC)[C@@H](N)C2)cc2nc(-c3cc4ccc5nc4n3CCCCCc3nc4ccsc4cc3C(=O)N[C@@H]5C)n(C)c12 [Example 788, (2~{R})-20-[5-[(3~{S),4~{R})-3-amino-4-methoxy-piperidine-1-carbonyl]-7-methoxy-1-methyl-benzimidazol-2-yl]-2-methyl-8-thia-3,12,19,25-tetrazapentacyclo[17.5.2.0^ {5,13).0^{7,11}.0^{22,26}] hexacosa-1(24),5(13), 6,9,11,20,22,25-octaen-4-one]",35 nM
7,"CO[C@@H]1CCN(C(=O)c2cc(F)c3c(c2)nc(-c2cc4ccc5nc4n2CCCCCc2nc(Cl)ccc2C(=O)N[C@@H]5C)n3C2CC2)C[C@@H]1N [Example 789, (2~{R})-17-[5-[(3~{S},4~{R})-3-amino-4-methoxy-piperidine-1-carbonyl]-1-cyclopropyl-7-fluoro-benzimidazol-2-yl]-8-chloro-2-methyl-3,9,16,22-tetrazatetracyclo[14.5.2.0^ {5,10}.0^{19,23}]tricosa-1(21),5(10),6,8,17,19,22-heptaen-4-one]",22 nM
8,"C[C@@H]1[C@H](N)CCCN1C(=O)c1cc(F)c2c(c1)nc(-c1cc3ccc4nc3n1CCCCCc1nc(Cl)ccc1C(=O)N[C@@H]4C)n2C1CC1 [Example 790, (2~{R})-17-[5-[(2~{R},3~{R})-3-amino-2-methyl-piperidine-1-carbonyl]-1-cyclopropyl-7-fluoro-benzimidazol-2-yl]-8-chloro-2-methyl-3,9,16,22-tetrazatetracyclo[14.5.2.0^ {5,10}.0^{19,23}]tricosa-1(21),5(10),6,8,17,19,22-heptaen-4-one]",23 nM
9,"C[C@H]1NC(=O)c2ccc(Cl)nc2CCCCCn2c(-c3nc4cc(C(=O)N5C[C@H](N)C[C@@H](F)C5)cc(F)c4n3C3CC3)cc3ccc1nc32 [Example 791, (2~{R})-17-[5-[(3~{R},5~{R})-3-amino-5-fluoro-piperidine-1-carbonyl]-1-cyclopropyl-7-fluoro-benzimidazol-2-yl]-8-chloro-2-methyl-3,9,16,22-tetrazatetracyclo[14.5.2.0^ {5,10}.0^{19,23}]tricosa-1(21),5(10),6,8,17,19,22-heptaen-4-one]",17 nM
10,"COc1cc(C(=O)N2C[C@H](N)C[C@@H](F)[C@@H]2C)cc2nc(-c3cc4ccc5nc4n3CC(F)(F)CCCC3C[C@H]3C(=O)N[C@@H]5C)n(C)c12 (stereo partly shown) [Example 792, (2~{R},5~{R),7~{R})-14-[5-[(2~{S),3~{R},5~{R})-5-amino-3-fluoro-2-methyl-piperidine-1-carbonyl]-7-methoxy-1-methyl-benzimidazol-2-yl]-11,11-difluoro-2-methyl-3,13,19-triazatetracyclo [11.5.2.0^{5,7}.0^{16,20}] icosa-1(18),14,16,19-tetraen-4-one]",342 nM
11,"COc1cc(C(=O)N2CCC[C@@H](N)[C@H]2C)cc2nc(-c3cc4ccc5nc4n3CCCCCc3nc4ccsc4cc3C(=O)N[C@@H]5C)n(C)c12 [Example 793, (2~{R})-20-[5-[(2~{R},3~{R})-3-amino-2-methyl-piperidine-1-carbonyl]-7-methoxy-1-methyl-benzimidazol-2-yl]-2-methyl-8-thia-3,12,19,25-tetrazapentacyclo[17.5.2.0^ {5,13}.0^{7,11}.0^{22,26}] hexacosa-1(24),5(13),6,9, 11,20,22,25-octaen-4-one]",24 nM
12,"COc1cc(C(=O)N2C[C@H](N)C[C@@H](F)C2)cc2nc(-c3cc4ccc5nc4n3CCCCCc3nc4ccsc4cc3C(=O)N[C@@H]5C)n(C)c12 [Example 794, (2~{R})-20-[5-[(3~{R},5~{R})-3-amino-5-fluoro-piperidine-1-carbonyl]-7-methoxy-1-methyl-benzimidazol-2-yl]-2-methyl-8-thia-3,12,19,25-tetrazapentacyclo[17.5.2.0^ {5,13}.0^{7,11).0^{22,26}] hexacosa-1(24),5(13), 6,9,11,20,22,25-octaen-4-one]",18 nM
13,"COc1cc(C(=O)N2C[C@H](N)C[C@@H](F)[C@@H]2C)cc2nc(-c3cc4ccc5nc4n3CCCCCCC(C)(C)C(=O)N[C@@H]5C)n(C)c12 [Example 795, (11~{R})-17-[5-[(2~{S),3~{R},5~ {R})-5-amino-3-fluoro-2-methyl-piperidine-1-carbonyl]-7-methoxy-1-methyl-benzimidazol-2-yl]-8,8,11-trimethyl-1,10,19-triazatricyclo[10.5.2.0^ {15,18}]nonadeca-12,14,16,18-tetraen-9-one]",661 nM

# Reference: patent publication US11976083B2, “Inhibitors of peptidylarginine deiminases” (Gilead Sciences, Inc., priority 2020, dated 2024)
